The values that follow come from patent publication US20200245616A1, “A Disinfectant Composition with Extended Antimicrobial Effects” (Siamons International Inc., priority 2017, published 2020).

What all share (format): cell-based
Test [1] concerns select bacteria and fungal organisms. The test can be described thus: Germicidal spray disinfection, summary over the tested organisms. Particulars: 0.01% QAH in CMC; 10-minute contact time. The procedure: All experiments were conducted according to the protocol outlined in AOAC Official Method 961.02 (Germicidal Spray Method), which is a carrier-based method used to evaluate disinfection efficacy of aerosol/pump-based spray products and liquid products for registration with regulatory agencies such as the U.S. EPA and Health Canada.
It was expected that if the CTAB was replaced by QAH's of similar structure that the disinfection of selected bacteria and fungal organisms would be similarly achieved. […] In the case of bacteria testing, the experimental procedure was as outlined in Example 1 for disinfection of bacterial cultures. In the case of fungal organisms, the experimental procedure was as outlined in Example 1 for the preparation of fungal cultures.

In test [2] the test system is Staphylococcus aureus ATCC 6538. The test can be described thus: AOAC Official Method 961.02 Germicidal Spray Method, bacteria on glass carriers. Particulars: for Staphylococcus aureus Growth Rate: 10 min contact; for killing Staphylococcus aureus: 1.0% QAH. The text has this: (§1) In this method, a series of glass slides (“carriers”) were inoculated with a representative test organism and the carriers were dried under ambient conditions. The dried organisms on the surface of the carrier were then sequentially treated with the composition of the present disclosure in the form of a spray product and were exposed for a pre-determined exposure time. After exposure, the carriers were sequentially transferred to a liquid subculture medium specifically selected to neutralize the composition of the present disclosure and to recover any surviving test organism. The carriers were incubated and visually examined for the presence or absence of growth. […] Required organisms for a disinfection claim include but are not limited to Staphylococcus aureus, Salmonella choleraesuis and Pseudomonas aeruginosa.
(§2) Method Adapted to the Preparation of Bacteria Cultures from −80° C. Freshly Recovered Stock. […] Added 10 μL of the thawed stock to a tube containing 10 mL synthetic broth and then vortexed to mix. Discarded the rest of cryovial stock. • Incubated the tube at 36 ±1° C. for 24 hours (h). Briefly vortexed the 24 h culture prior to transfer. For this final subculture step, inoculated two 20×150 mm tubes containing 10 mL synthetic broth with […] of the 24 h synthetic broth culture. • Incubated 48 h at 36±1° C. Using a Vortex-style mixer, mixed synthetic broth test cultures 3-4 seconds and let stand 10 minutes at room temperature before continuing. Removed the upper portion of each culture, leaving behind any debris or clumps, and transferred to a sterile tube. Titrated the culture by plating on synthetic agar plates, and diluted to 5×10^8 Colony Forming Units (CFU) per mL.
(§3) High volume screening studies were conducted in some cases where only 4 organism-inoculated carriers were treated at specified concentrations of CTAB. Vortex-mixed the inoculum periodically during inoculation of the carriers. • Immediately spread the inoculum uniformly over the majority of the carrier surface using a sterile loop. […] Covered dish immediately and repeated operation until 64 carriers had been prepared for the test. Once all of the carriers had been inoculated, placed in incubator at 37° C. for 40 minutes until dry.
(§4) • After the test organisms were dried on the surface of the carrier, each carrier was sprayed with the respective disinfection formulae 10 times in 10 seconds at a distance of 30 cm. • Treatment interval was timed. Ten (10) minutes after each carrier had been sprayed by the disinfectant, the excess liquid was removed and the carriers were transferred in a sequentially timed fashion into the culture tubes containing 20 ml neutralizer (Letheen Broth with 0.07% Lecithin/0.5% Tween 80/0.1% Sodium Thiosulfate) to neutralize the disinfectant. […] The percentage of the treated carriers showing growth after 48 hours was recorded.

Test [3] relates to Pseudomonas aeruginosa ATCC 15442. The test is described as above. Particulars: 10 min contact.
Excerpt: as §1, §2, §3, §4

Test [4] concerns Trichophyton mentagrophytes ATCC 9533. Nature of the test: AOAC Official Method 961.02 Germicidal Spray Method, fungal conidia on glass carriers. Particulars: 10 min contact.
Excerpt: as §1
(§5) The conidiospore suspension was macerated in a tissue grinder. The suspension was filtered through sterile cotton to remove the hyphae and hyphal fragments.
(§6) Vortex-mixed the inoculum periodically during inoculation of the carriers. • Immediately spread the inoculum uniformly over the majority of the carrier surface using a sterile loop. […] High volume screening studies were conducted in some cases where only 4 organism-inoculated carriers were treated at specified concentrations of CTAB. Once all of the carriers had been inoculated, the carriers were placed in an incubator at 37° C. for 40 minutes until completely dry.
(§7) • After drying, each carrier was sprayed with the respective disinfection formulae 10 times in 10 seconds at a distance of 30 cm. • Timed the treatment interval. Ten (10) minutes after each carrier had been exposed to the disinfectant, the excess liquid was removed and the carriers were transferred in a sequentially timed fashion into the culture tubes containing 20 ml neutralization broth (Letheen Broth with 0.07% Lecithin /0.5% Tween 80) to neutralize the disinfectant. • After the carriers were deposited in the respective culture tubes, the tubes were recapped and the cultures were thoroughly resuspended. • Incubated all neutralization tubes at 28 ±1° C. for 14 days. • After 14 days, the cultures within the tubes were examined for growth. The percentage of the treated carriers showing growth was recorded.

The subject of test [5] is Penicillium variable ATCC 32333. The description is as above. Particulars: 10 min contact.
Excerpt: as §1, §5, §6, §7

For test [6], the system named is Aspergillus niger ATCC 6275. The description is as above. The settings on record: 10 min contact.
Excerpt: as §1, §5, §6, §7

As to `CCCCCCCCCCCCCCCCCC[N+](C)(C)C.[Cl-]` [TMSAC, Trimethylstearylammonium chloride], the “effectiveness against the target organisms” value (shortened to “effectiveness”) in test [1] is given as “remarkable effectiveness”. For the same compound, the “Staphylococcus aureus Growth Rate” value in test [2] (CMC + QAH, QAH 0.010%) worked out at 0%; in test [2] (CMC + QAH, QAH 0.100%), 0%; in test [2] (CMC + QAH, QAH 1.000%) it was 0%; in test [2] (Water + QAH, QAH 0.010%), 100%; in test [2] (Water + QAH, QAH 0.100%), 100%; in test [2] (Water + QAH, QAH 1.000%), 50%. In addition, the “Pseudomonas aeruginosa Growth Rate” value is on record as 0% in test [3] (CMC + QAH, QAH 0.010%); 0% in test [3] (CMC + QAH, QAH 0.100%); 0% in test [3] (CMC + QAH, QAH 1.000%); 100% in test [3] (Water + QAH, QAH 0.010%); 50% in test [3] (Water + QAH, QAH 0.100%); 0% in test [3] (Water + QAH, QAH 1.000%). The “Trichophyton mentagrophytes Growth Rate” value in test [4] (CMC + QAH, QAH 0.010%) was found to be 0%; in test [4] (CMC + QAH, QAH 0.100%), 0%; in test [4] (CMC + QAH, QAH 1.000%), 0%; in test [4] (Water + QAH, QAH 0.010%), 0%; in test [4] (Water + QAH, QAH 0.100%) it was 0%; in test [4] (Water + QAH, QAH 1.000%), 0%. Besides, the “Penicillium variable Growth Rate” value is recorded as 0% in test [5] (CMC + QAH, QAH 0.010%); 0% in test [5] (CMC + QAH, QAH 0.100%); 0% in test [5] (CMC + QAH, QAH 1.000%); 0% in test [5] (Water + QAH, QAH 0.010%); 0% in test [5] (Water + QAH, QAH 0.100%); 0% in test [5] (Water + QAH, QAH 1.000%).
Consider `CCCCCCCCCCCCCCCC[N+](C)(C)Cc1ccccc1.[Cl-]` [BDAC, Benzyl-dimethylhexadecylammonium chloride], for which the “effectiveness” value in test [1] is on record as “remarkable effectiveness”. For the same compound, the “Staphylococcus aureus Growth Rate” value is on record as 0% in test [2] (CMC + QAH, QAH 0.010%); 0% in test [2] (CMC + QAH, QAH 0.100%); 0% in test [2] (CMC + QAH, QAH 1.000%); 100% in test [2] (Water + QAH, QAH 0.010%); 0% in test [2] (Water + QAH, QAH 0.100%); 0% in test [2] (Water + QAH, QAH 1.000%). Also, the “Pseudomonas aeruginosa Growth Rate” value was 0% in test [3] (CMC + QAH, QAH 0.010%); 0% in test [3] (CMC + QAH, QAH 0.100%); 0% in test [3] (CMC + QAH, QAH 1.000%); 100% in test [3] (Water + QAH, QAH 0.010%); 25% in test [3] (Water + QAH, QAH 0.100%); 25% in test [3] (Water + QAH, QAH 1.000%). Also, the “Trichophyton mentagrophytes Growth Rate” value in test [4] (CMC + QAH, QAH 0.010%) worked out at 0%; in test [4] (CMC + QAH, QAH 0.100%) it was 0%; in test [4] (CMC + QAH, QAH 1.000%), 0%; in test [4] (Water + QAH, QAH 0.010%), 0%; in test [4] (Water + QAH, QAH 0.100%) it was 0%; in test [4] (Water + QAH, QAH 1.000%) it was 0%. For the same compound, the “Aspergillus niger Growth Rate” value in test [6] (CMC + QAH, QAH 0.010%) was 100%; in test [6] (CMC + QAH, QAH 0.100%), 25%; in test [6] (CMC + QAH, QAH 1.000%) it was 0%; in test [6] (Water + QAH, QAH 0.010%) it was 100%; in test [6] (Water + QAH, QAH 0.100%), 75%; in test [6] (Water + QAH, QAH 1.000%), 0%. Further, the “Penicillium variable Growth Rate” value is reported as 0% in test [5] (CMC + QAH, QAH 0.010%); 0% in test [5] (CMC + QAH, QAH 0.100%); 0% in test [5] (CMC + QAH, QAH 1.000%); 0% in test [5] (Water + QAH, QAH 0.010%); 0% in test [5] (Water + QAH, QAH 0.100%); 0% in test [5] (Water + QAH, QAH 1.000%).
Regarding `CC[N+](CC)(CC)Cc1ccccc1.[Cl-]` [BTEAC, Benzyltriethylammonium chloride], in test [2], the “killing Staphylococcus aureus” value is reported as “incapable of killing”. Further, the “Staphylococcus aureus Growth Rate” value in test [2] (CMC + QAH, QAH 0.010%) amounted to 100%; in test [2] (CMC + QAH, QAH 0.100%), 100%; in test [2] (CMC + QAH, QAH 1.000%) it was 75%; in test [2] (Water + QAH, QAH 0.010%), 100%; in test [2] (Water + QAH, QAH 0.100%) it was 100%; in test [2] (Water + QAH, QAH 1.000%) it was 100%.
“Alkyldimethylbenzylammonium chloride [ADBAC]”: the “effectiveness” value in test [1] was “remarkable effectiveness”. For the same compound, the “Pseudomonas aeruginosa Growth Rate” value in test [3] (CMC + QAH, QAH 0.010%) came to 0%; in test [3] (CMC + QAH, QAH 0.100%), 0%; in test [3] (CMC + QAH, QAH 1.000%) it was 0%; in test [3] (Water + QAH, QAH 0.010%) it was 0%; in test [3] (Water + QAH, QAH 0.100%), 0%; in test [3] (Water + QAH, QAH 1.000%) it was 0%. Moreover, the “Trichophyton mentagrophytes Growth Rate” value is listed as 0% in test [4] (CMC + QAH, QAH 0.010%); 0% in test [4] (CMC + QAH, QAH 0.100%); 0% in test [4] (CMC + QAH, QAH 1.000%); 0% in test [4] (Water + QAH, QAH 0.010%); 0% in test [4] (Water + QAH, QAH 0.100%); 0% in test [4] (Water + QAH, QAH 1.000%). The “Aspergillus niger Growth Rate” value worked out at 100% in test [6] (CMC + QAH, QAH 0.010%); 0% in test [6] (CMC + QAH, QAH 0.100%); 0% in test [6] (CMC + QAH, QAH 1.000%); 100% in test [6] (Water + QAH, QAH 0.010%); 100% in test [6] (Water + QAH, QAH 0.100%); 0% in test [6] (Water + QAH, QAH 1.000%). Also, the “Penicillium variable Growth Rate” value was 0% in test [5] (CMC + QAH, QAH 0.010%); 0% in test [5] (CMC + QAH, QAH 0.100%); 0% in test [5] (CMC + QAH, QAH 1.000%); 0% in test [5] (Water + QAH, QAH 0.010%); 0% in test [5] (Water + QAH, QAH 0.100%); 0% in test [5] (Water + QAH, QAH 1.000%).
As to `CCCC[N+](CCCC)(CCCC)Cc1ccccc1.[Cl-]` [BTBAC, Benzyltri-n-butylammonium chloride], the “killing Staphylococcus aureus” value in test [2] is on record as “incapable of killing”. Moreover, the “Staphylococcus aureus Growth Rate” value in test [2] (CMC + QAH, QAH 0.010%) stood at 100%; in test [2] (CMC + QAH, QAH 0.100%), 100%; in test [2] (CMC + QAH, QAH 1.000%), 100%; in test [2] (Water + QAH, QAH 0.010%), 100%; in test [2] (Water + QAH, QAH 0.100%), 100%; in test [2] (Water + QAH, QAH 1.000%), 100%.
